Molecules are shown by their SMILES.

The target of one test is T1, Recombinant human LTC4 synthase (Homo sapiens, UniProt Q16873).
T1 construct: made in house; host or cells: Pichia pastoris ('Piccia pastoralis' [sic])
T1 sequence (Q16873 1-150): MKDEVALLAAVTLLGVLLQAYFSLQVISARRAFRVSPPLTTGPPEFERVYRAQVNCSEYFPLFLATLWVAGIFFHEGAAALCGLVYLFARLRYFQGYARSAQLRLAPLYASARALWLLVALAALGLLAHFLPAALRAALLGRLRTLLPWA
The experiment in a line: LTC4 synthase in vitro assay (LTA4 to LTC4, HTRF detection).
Conditions: not given
Format: biochemical. In a few lines: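 Purified recombinant human LTC4 synthase expressed in Pichia (0.5 μg/mL total protein) was preincubated with inhibitor at 10 μM final for 10 min at room temperature in PBS pH 7.4 with 5 mM GSH. LTA4 was then added at 2.5 μM final, and after 5 min at room temperature LTC4 was detected by HTRF.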
Usually IC50 stands for the midpoint of a concentration-inhibition curve. For the molecule `CN(c1ccc(Cl)cc1)c1ccc(C(=O)c2ccc(NC(=O)c3ccc(C(F)(F)F)cc3)c(C(=O)O)c2)nc1` [3:1, 5-{5-[(4-Chlorophenyl)(methyl)amino]picolinoyl}-2-(4-trifluoromethylbenzamido)-benzoic acid], the IC50 worked out at 33 nM. Same read-out and setting: to `CN(c1ccc(Cl)cc1)c1ccc(C(=O)c2ccc(OCc3ccccc3Cl)c(C(=O)O)c2)nc1` [12:2, 2-(2-Chlorobenzyloxy)-5-{5-[(4-chlorophenyl)(methyl)amino]picolinoyl}benzoic acid] belongs 184 nM. The same measure, in the same setting: to `COc1ccc(CNc2ccc(C(=O)c3ccc(N(C)c4ccc(Cl)cc4)cn3)cc2C(=O)O)cc1` [2:6, 5-{5-[(4-Chlorophenyl)(methyl)amino]picolinoyl}-2-(4-methoxybenzylamino)benzoic acid] belongs 151 nM. As to `CN(c1ccc(Cl)cc1)c1ccc(C(=O)c2ccc(NC(=O)c3ccc4c(c3)OC(F)(F)O4)c(C(=O)O)c2)nc1` [3:17, 5-{5-[(4-Chlorophenyl)(methyl)amino]picolinoyl}-2-[3,4-(difluoromethylene-dioxy)benzamido]benzoic acid], the half-maximal inhibitory concentration (IC50) stood at 38 nM. Same read-out and setting: for `O=C(c1ccc(NS(=O)(=O)c2ccc(Cl)cc2)c(C(=O)O)c1)c1ccc(N(CC2CC2)c2ccc(Cl)cc2)cn1` [4:6, 2-(4-Chlorophenylsulfonamido)-5-{5-[(4-chlorophenyl)(cyclopropylmethyl)-amino]picolinoyl}benzoic acid] the value was 17 nM. The same measure, in the same setting: for `COc1ccc(Oc2ccc(C(=O)c3ccc(N(CC4CC4)c4ccc(Cl)cc4)cn3)cc2C(=O)O)cc1` [1:25, 5-{5-[(4-Chlorophenyl)(cyclopropylmethyl)amino]picolinoyl}-2-(4-methoxyphenoxy)benzoic acid] the value was 94 nM. Turning to `CN(c1ccc(Cl)cc1)c1ccc(C(=O)c2ccc(-n3nc(C(F)(F)F)cc3-c3ccccc3)c(C(=O)O)c2)nc1` [18:3], the 50% inhibitory concentration (IC50) is 177 nM. With `O=C(c1ccc(Oc2ccccc2)c(C(=O)O)c1)c1ccc(OCc2ccc(Cl)c(Cl)c2)cn1` [11:9, 5-[5-(3,4-Dichlorobenzyloxy)picolinoyl]-2-phenoxybenzoic acid], the IC50 came out at 69 nM. For `O=C(c1ccc(Oc2ccccc2Oc2ccccc2Cl)c(C(=O)O)c1)c1ccc(N(CC2CC2)c2ccc(Cl)cc2)cn1` [1:45, 2-[2-(2-Chlorophenoxy)phenoxy]-5-{5-[(4-chlorophenyl)(cyclopropylmethyl)amino]picolinoyl}benzoic acid], the half-inhibitory concentration (IC50) was 32 nM. Turning to `COc1ccc(C(=O)c2ccc(C(=O)c3ccc(N(C)c4ccc(Cl)cc4)cn3)cc2C(=O)O)cc1` [5:3, 5-{5-[(4-Chlorophenyl)(methyl)amino]picolinoyl}-2-(4-methoxybenzoyl)benzoic acid], the half-inhibitory concentration (IC50) was 50 nM.

Turning to `CN(c1ccc(Cl)cc1)c1ccc(C(=O)c2ccc(NC(=O)c3cccc4c3OC(F)(F)O4)c(C(=O)O)c2)nc1` [3:18, 5-{5-[(4-Chlorophenyl)(methyl)amino]picolinoyl}-2-[2,3-(difluoromethylene-dioxy)benzamido]benzoic acid], the half-maximal inhibitory concentration (IC50) was found to be 112 nM. The same measure, in the same setting: to `Cc1ccc(N(C)c2ccc(C(=O)c3ccc(C(=O)c4ccccc4)c(C(=O)O)c3)nc2)cc1` [5:21] belongs 250 nM; to `COc1ccccc1Nc1ccc(C(=O)c2ccc(N(C)c3ccc(Cl)cc3)cn2)cc1C(=O)O` [2:14, 5-{5-[(4-Chlorophenyl)(methyl)amino]picolinoyl}-2-(2-methoxyphenylamino)benzoic acid], 68 nM; to `CN(c1ccc(Cl)cc1)c1ccc(C(=O)c2ccc(NC3CCC(C(C)(C)C)CC3)c(C(=O)O)c2)nc1` (stereo not drawn) [2:2, 2-(4-tert-Butylcyclohexylamino)-5-{5-[(4-chlorophenyl)(methyl)amino]picolinoyl}-benzoic acid], 66 nM. As for `CN(c1ccc(Cl)cc1)c1ccc(C(=O)c2ccc(C(=O)c3ccc4c(c3)OCO4)c(C(=O)O)c2)nc1` [5:24, 5-{5-[(4-Chlorophenyl)(methyl)amino]picolinoyl}-2-(3,4-methylenedioxy-benzoyl)benzoic acid], the IC50 is 77 nM. The same measure, in the same setting: to `O=C(c1ccc(Oc2ccccc2F)c(C(=O)O)c1)c1ccc(N(CC(F)(F)F)c2ccc(Cl)cc2F)cn1` [1:35, 5-{5-[(4-Chloro-2-fluorophenyl)-(2,2,2-trifluoroethyl)amino]picolinoyl}-2-(2-fluorophenoxy)benzoic acid] belongs 621 nM; to `CCN(c1ccc(C(=O)c2ccc(Oc3ccccc3)c(C(=O)O)c2)nc1)c1cccc(C(F)(F)F)c1` [1:12, 5-{5-[(Ethyl)(3-trifluoromethylphenyl)amino]picolinoyl}-2-phenoxybenzoic acid], 247 nM. Same read-out and setting: to `COc1cccc(C(=O)Nc2ccc(C(=O)c3ccc(N(C)Cc4ccc(Cl)cc4)cn3)cc2C(=O)O)c1` [3:37, 5-{5-[(4-Chlorobenzyl)(methyl)amino]picolinoyl}-2-(3-methoxybenzamido)-benzoic acid] belongs 21 nM; to `COc1cccc(C(=O)c2ccc(C(=O)c3ccc(N(C)c4ccc(Cl)cc4)cn3)cc2C(=O)O)c1` [5:7, 5-{5-[(4-Chlorophenyl)(methyl)amino]picolinoyl}-2-(3-methoxybenzoyl)benzoic acid], 36 nM. With `CN(c1ccc(Cl)cc1)c1ccc(C(=O)c2ccc(C(=O)c3ccccc3)c(C(=O)O)c2)nc1` [5:1, 2-Benzoyl-5-{5-[(4-chlorophenyl)(methyl)amino]picolinoyl}benzoic acid], the half-inhibitory concentration (IC50) worked out at 72 nM. The same measure, in the same setting: for `O=C(Nc1ccc(C(=O)c2ccc(N(CC3CC3)c3ccc(Cl)cc3)cn2)cc1C(=O)O)c1ccc2c(c1)OC(F)(F)O2` [3:24, 5-{5-[(4-Chlorophenyl)(cyclopropylmethyl)amino]picolinoyl}-2-[3,4-(difluoromethylenedioxy)benzamido]benzoic acid] the value was 16 nM; for `CN(c1ccc(Cl)cc1)c1ccc(C(=O)c2ccc(C(=O)c3ccc([N+](=O)[O-])cc3)c(C(=O)O)c2)nc1` [5:12], 202 nM.

Take `O=C(c1ccc(Oc2ccccc2)c(C(=O)O)c1)c1ccc(OCc2cccc(Br)c2)cn1` [11:8, 5-[5-(3-Bromobenzyloxy)picolinoyl]-2-phenoxybenzoic acid]: the IC50 was 126 nM. With `COc1ccc(C(=O)c2ccc(C(=O)c3ccc(N(CC4CC4)c4ccc(Cl)cc4F)cn3)cc2C(=O)O)cc1` [5:5], the IC50 is 46 nM.

As for `CN(c1ccc(Cl)cc1)c1ccc(C(=O)c2ccc(C(=O)c3cccc(OC(F)(F)F)c3)c(C(=O)O)c2)nc1` [5:28], the half-maximal inhibitory concentration (IC50) amounted to 60 nM. On the same count and under the same terms, to `O=C(c1ccc(Oc2ccccc2)c(C(=O)O)c1)c1ccc(Nc2ccc(Cl)cc2)cn1` [1:29, 5-[5-(4-Chlorophenylamino)picolinoyl]-2-phenoxybenzoic acid] belongs 282 nM; to `CN(c1ccc(Cl)cc1)c1ccc(C(=O)c2ccc(C(=O)C3(c4ccccc4)CC3)c(C(=O)O)c2)nc1` [5:19], 32 nM; to `CN(c1ccc(Cl)cc1)c1ccc(C(=O)c2ccc(OCc3ccc(Cl)cc3)c(C(=O)O)c2)nc1` [12:3, 2-(4-Chlorobenzyloxy)-5-{5-[(4-chlorophenyl)(methyl)amino]picolinoyl}benzoic acid], 364 nM.

Still in this test, the particulars now being: 5 min; total concentration of title compound in the assay 10 μM.
By inhibition is commonly meant the drop in the measured response relative to a control, in per cent. Turning to `CN(c1ccc(Cl)cc1)c1ccc(C(=O)c2ccc(NC(=O)c3ccc(C(F)(F)F)cc3)c(C(=O)O)c2)nc1` [3:1, 5-{5-[(4-Chlorophenyl)(methyl)amino]picolinoyl}-2-(4-trifluoromethylbenzamido)-benzoic acid], the inhibition at 10 µM stood at 100%. On the same count and under the same terms, to `CCN(c1ccc(C(=O)c2ccc(Oc3ccccc3)c(C(=O)O)c2)nc1)c1cccc(C(F)(F)F)c1` [1:12, 5-{5-[(Ethyl)(3-trifluoromethylphenyl)amino]picolinoyl}-2-phenoxybenzoic acid] belongs 100%.

Source of the values: patent US20120004244A1, “Bis Aromatic Compounds for Use as LTC4 Synthase Inhibitors” (BIOLIPOX AB, priority 2009, published 2012).
